# Assay results published in patent US20050266512A1, “Detection of proteases and screening for protease inhibitors” (priority 2000, published 2005).
# Test system: horse erythrocytes
# Experiment: Hemolytic plate assay (erythrocyte lysis, decrease in absorbance)
# Format: cell-based
# Details: FIG. 1
# Procedure: The HIV-1 proaerolysin variant generated in EXAMPLE 3 was incubated with varying concentrations of an HIV protease-containing sample in a microtiter plate (HIV-1 protease obtained from BACHEM, Torrance, Calif.). The HIV-1 proaerolysin variant (1.5×10^−6 M) was diluted 1:16 in PBS to a final volume of 100 μl and added to the first column of wells of a 96 well plate. Various concentrations of HIV-protease containing samples, ranging from 10 to 500 ng of HIV-1 protease in a final volume of 100 μl, were added to each of the 8 wells of the first column of the microtiter plate, and the plate incubated for four hours.
# After incubation, the samples were serially diluted 1:2 by adding 100 μl of PBS to the first column of wells, mixing and transferring 100 μl sequentially to each of the wells in every row. Then, 100 μl of washed horse erythrocytes were added to all wells so that the final erythrocyte concentration was 0.4%. […]
Substance,absorbance (erythrocyte lysis) (native proaerolysin activated with trypsin),"absorbance (erythrocyte lysis) (HIV variant of proaerolysin activated with HIV protease, absorbance at 600 nm, listed as HIV variant of proaerolysin)","absorbance (erythrocyte lysis) (HIV variant of proaerolysin activated with HIV protease, absorbance at 600 nm, listed as proaerolysin variant)"
"native proaerolysin: precursor form of the aerolysin toxin, a 52 kDa protein produced by bacteria in the genus Aeromonas",decrease in absorbance,–,–
HIV-1 proaerolysin variant: proaerolysin variant in which the normal activation sequence KVRRAR was replaced with the HIV-1 protease sensitive sequence QNYPIV,–,decrease in absorbance,lysis of the erythrocytes
